Results published in ChEMBL document CHEMBL1914410, “Discovery of a series of potent and selective human H4 antagonists using ligand efficiency and libraries to explore structure-activity relationship (SAR)” (Bioorg Med Chem Lett, 2011).
Blank lines part the entries; values can stand above or below the molecule they belong to.

What was measured:
[1] = molecular target: T1, Histamine H4 receptor (Homo sapiens, UniProt Q9H3N8); assay: Antagonist activity at human histamine H4 receptor at 15 uM by functional assay; set-up: scale not given: the % may be the effect or the level left
[2] = molecular target: T1, Histamine H4 receptor; assay: Displacement of [3H]histamine from human histamine H4 receptor expressed in CHO cells after 90 mins by scintillation counting technique; type: cell-based
[3] = Distribution coefficient, log D of the compound at pH 7.4; type: physicochemical; conditions: octanol/water
[4] = molecular target: T1, Histamine H4 receptor; assay: Antagonist activity at human histamine H4 receptor by functional assay
[5] = molecular target: Histamine H1 receptor (Homo sapiens, UniProt P35367); assay: Antagonist activity at histamine H1 receptor; type: functional
[6] = molecular target: Histamine H2 receptor (Homo sapiens, UniProt P25021); assay: Antagonist activity at histamine H2 receptor; type: functional
[7] = Metabolic stability in human liver microsomes; type: ADME, Microsome; conditions: read-out: Stability
[8] = Metabolic stability in rat liver microsomes; type: ADME, Microsome; conditions: read-out: Stability
[9] = molecular target: T2, Histamine H3 receptor (Homo sapiens, UniProt Q9Y5N1); assay: Binding affinity to histamine H3 receptor
[10] = molecular target: T2, Histamine H3 receptor; assay: Antagonist activity at histamine H3 receptor; type: functional
[11] = molecular target: T2, Histamine H3 receptor; assay: Binding affinity to human histamine H3 receptor
[12] = tested on: Liver microsomes; assay: Intrinsic clearance in rat liver microsomes; type: ADME, Microsome

T2 sequence (Q9Y5N1 whole entry): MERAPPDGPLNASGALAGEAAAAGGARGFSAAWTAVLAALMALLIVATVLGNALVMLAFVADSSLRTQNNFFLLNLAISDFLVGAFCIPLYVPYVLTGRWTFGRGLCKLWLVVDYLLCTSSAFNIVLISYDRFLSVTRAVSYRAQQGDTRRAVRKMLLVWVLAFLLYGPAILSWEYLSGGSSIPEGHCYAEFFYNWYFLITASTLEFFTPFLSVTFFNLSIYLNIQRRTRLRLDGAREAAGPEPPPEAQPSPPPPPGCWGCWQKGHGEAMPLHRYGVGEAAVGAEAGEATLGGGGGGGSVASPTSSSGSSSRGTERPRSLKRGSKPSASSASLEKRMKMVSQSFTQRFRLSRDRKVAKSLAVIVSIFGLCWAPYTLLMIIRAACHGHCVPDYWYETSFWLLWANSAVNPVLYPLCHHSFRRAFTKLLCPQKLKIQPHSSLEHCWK
Sequence of Histamine H1 receptor (P35367 whole entry): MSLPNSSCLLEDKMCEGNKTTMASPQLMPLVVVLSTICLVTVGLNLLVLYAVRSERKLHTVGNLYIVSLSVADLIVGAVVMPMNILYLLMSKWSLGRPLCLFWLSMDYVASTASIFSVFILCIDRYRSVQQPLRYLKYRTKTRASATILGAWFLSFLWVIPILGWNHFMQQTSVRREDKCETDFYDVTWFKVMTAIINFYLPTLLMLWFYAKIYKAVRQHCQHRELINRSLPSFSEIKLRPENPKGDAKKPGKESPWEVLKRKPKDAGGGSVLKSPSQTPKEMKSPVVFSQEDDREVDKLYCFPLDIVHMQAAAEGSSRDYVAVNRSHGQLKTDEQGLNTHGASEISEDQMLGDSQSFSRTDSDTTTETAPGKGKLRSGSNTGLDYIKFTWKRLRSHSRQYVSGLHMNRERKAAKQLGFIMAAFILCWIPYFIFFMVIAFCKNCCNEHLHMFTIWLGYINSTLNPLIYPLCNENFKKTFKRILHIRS
Sequence of Histamine H2 receptor (P25021 whole entry): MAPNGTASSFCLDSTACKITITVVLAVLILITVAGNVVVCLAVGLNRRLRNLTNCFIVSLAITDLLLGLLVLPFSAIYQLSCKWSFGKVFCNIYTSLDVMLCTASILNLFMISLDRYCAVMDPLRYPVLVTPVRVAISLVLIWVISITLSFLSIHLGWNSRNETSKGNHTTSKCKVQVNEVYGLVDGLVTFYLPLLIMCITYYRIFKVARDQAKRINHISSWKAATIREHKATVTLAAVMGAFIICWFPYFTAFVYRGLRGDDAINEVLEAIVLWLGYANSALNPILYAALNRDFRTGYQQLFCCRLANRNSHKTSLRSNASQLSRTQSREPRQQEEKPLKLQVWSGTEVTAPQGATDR

SMILES: CC(C)(C)CCNc1cc(NC2CCN(Cc3ccc(CO)o3)C2)ncn1 (stereo not given)
- Activity [1]: 73%
- Ki [2]: 2.11 µM

SMILES: CN1CCN(c2cnc3ccccc3n2)CC1
- logD [3]: 1.76
- Ki [2]: 1.06 µM

SMILES: Cc1ccc(C#N)c(N2CC3CN(C)CC3C2)n1 (stereo not given)
- logD [3]: -0.86
- Ki [2]: 0.93 µM

SMILES: COc1ccccc1Cn1ccc(NCCc2cnc[nH]2)nc1=O
- Ki [4]: > 2 µM
- Activity [1]: 65%
- Ki [2]: 1.6 µM

SMILES: CN1CC[C@H](Nc2cc(NCCC(C)(C)C)ncn2)C1
- Ki [2]: 0.593 µM

SMILES: CC(C)(C)CCNc1cc(N[C@@H]2CCNC2)ncn1
- Ki [10]: 13.6 µM

SMILES: CC(C)(C)CCNc1cc(N2CCN(C3CCCCC3)CC2)ncn1
- logD [3]: 3.84
- Ki [2]: 0.601 µM

SMILES: CC(C)(C)CCNc1cc(N[C@H]2CCN(Cc3cccc(F)c3O)C2)ncn1
- Ki ([2]; cho): 20 µM

SMILES: CN1CCN(c2cc(NCC(C)(C)C)ncn2)CC1
- logD [3]: 1.75
- Ki [11]: 0.825 µM

SMILES: CC(C)(C)CCNc1cc(N2CCNCC2)ncn1
- logD [3]: 1.4

SMILES: COCc1ccc(CN2CC[C@H](Nc3cc(NCCC(C)(C)C)ncn3)C2)o1
- Ki ([2]; cho): 20 µM

SMILES: CN(C)CCNc1cc(NCC2CC2)ncn1
- CL [12]: 143 µL/min

SMILES: CN(C)[C@@H]1CCN(c2cc(NCC(C)(C)C)ncn2)C1
- logD [3]: 1.09
- Ki [11]: 0.054 µM

SMILES: CC(C)(C)CCNc1cc(N[C@H]2CCNC2)ncn1
- Ki [4]: 0.572 µM
- Ki [10]: 8.22 µM
- Ki [5]: > 40 µM
- Ki [6]: 8.82 µM
- logD [3]: 0.6

Now from value to molecule:

- logD [3]: 0.96
SMILES: CN1CCCN(c2cc(NCC(C)(C)C)ncn2)CC1

- Ki [2]: 0.207 µM
SMILES: CN1CCN(c2cc(NCc3ccccc3)ncn2)CC1

- Ki [4]: 0.0396 µM
- Ki [2]: 0.0477 µM
SMILES: CN1CCN(C(=O)c2nc3cc(Cl)ccc3[nH]2)CC1

- Ki [4]: 0.037 µM
- Ki [5]: > 10 µM
- Ki [6]: 3.56 µM
- logD [3]: 2.6
- microsomal CLint [7]: 16 µL/min/mg
- microsomal CLint [8]: 147 µL/min/mg
- Ki [9]: 0.646 µM
SMILES: CN1CCN(c2cc(NCCC(C)(C)C)ncn2)CC1

- Activity [1]: 57%
- Ki [2]: 34.9 µM
SMILES: CN1CCN(c2cc(C(=O)NCc3cccc(C(F)(F)F)c3)ncn2)CC1

- Ki [4]: > 2 µM
- Activity [1]: 60%
- Ki [10]: 2.5 µM
- Ki [2]: 3.24 µM
SMILES: COc1cccc(C(O)(COc2ccccc2C)CN2CCN(C)CC2)c1 (stereo not given)

- Ki [2]: 0.212 µM
SMILES: CN1CCN(c2cc(NC3Cc4ccccc4C3)ncn2)CC1

- Ki [2]: 0.86 µM
SMILES: CN1CCN(c2cc(N3[C@@H]4CCC[C@@H]3C4)ncn2)CC1
